In patent publication US10864198B2, “Methods of preventing cardiovascular events in residual risk dyslipidemic populations” (Kowa Company, Ltd., priority 2016, dated 2020):
Where two headings read alike, the source gives them in different places.

Legend:
men with dyslipidemia = settings: Helsinki Heart Study and VA-HIT Study; cited from earlier work
PPARδ = biological target: T1, PPARδ (Homo sapiens, UniProt Q03181); settings: PPAR transcriptional activity; Fruchart 2013 Table 1; cited from earlier work
T1 sequence (Q03181 1-441): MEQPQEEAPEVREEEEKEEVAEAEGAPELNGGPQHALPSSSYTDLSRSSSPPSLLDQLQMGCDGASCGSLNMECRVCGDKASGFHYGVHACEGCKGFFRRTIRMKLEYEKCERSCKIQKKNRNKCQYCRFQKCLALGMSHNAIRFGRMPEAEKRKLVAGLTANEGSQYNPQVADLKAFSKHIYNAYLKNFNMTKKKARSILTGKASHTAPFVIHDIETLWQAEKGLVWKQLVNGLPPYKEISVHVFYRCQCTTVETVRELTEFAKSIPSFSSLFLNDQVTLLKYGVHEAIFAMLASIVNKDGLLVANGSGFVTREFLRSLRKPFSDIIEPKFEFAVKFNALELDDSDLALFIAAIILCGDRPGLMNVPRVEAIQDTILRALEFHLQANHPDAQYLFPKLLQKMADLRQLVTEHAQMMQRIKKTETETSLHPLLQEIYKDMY

[1] = system: patients on statins with residual cardiovascular risk; settings: two clinical trials; cited from earlier work
[2] = system: dyslipidemia patients on concurrent statin therapy; type: in vivo, human; settings: for LDL-C levels increase vs. placebo: significant
Description: The results of the study are depicted in FIGS. 1A-1D.

[3] = system: patients with type 2 diabetes mellitus with residual dyslipidemia on statin; assay: Example 2: post-hoc analysis of type 2 diabetes patients of the Example 1 study; type: in vivo, human; settings: for increase in HDL-C / BQ LDL-C increase: significant
Description: Overall, 161 type 2 diabetes mellitus patients were randomized and 154 patients completed treatment. […] Tables 1-4 also report the results of the analyses, and compare the results to the results obtained for the general residual dyslipidemia population studied in Example 1.

[4] = system: patients with fasting high TG and non-HDL-C treated with pitavastatin; assay: Example 3: double-blind parallel-group study, pemafibrate add-on to pitavastatin, 12 weeks; type: in vivo, human; settings: for Fasting non-HDL-C reduction: with pitavastatin, placebo −5.9%; for Fasting TG reduction (percentage change from baseline): with pitavastatin 2 mg/day, P<0.001 vs placebo (−6.9%)
Description: The primary endpoint was the percentage change in TG from baseline and incidence of adverse drug reactions (ADRs) and adverse events (AEs).

PPARγ = biological target: T2, PPARγ (Homo sapiens, UniProt P37231); settings: PPAR transcriptional activity; Fruchart 2013 Table 1; cited from earlier work
T2 sequence (P37231 1-505): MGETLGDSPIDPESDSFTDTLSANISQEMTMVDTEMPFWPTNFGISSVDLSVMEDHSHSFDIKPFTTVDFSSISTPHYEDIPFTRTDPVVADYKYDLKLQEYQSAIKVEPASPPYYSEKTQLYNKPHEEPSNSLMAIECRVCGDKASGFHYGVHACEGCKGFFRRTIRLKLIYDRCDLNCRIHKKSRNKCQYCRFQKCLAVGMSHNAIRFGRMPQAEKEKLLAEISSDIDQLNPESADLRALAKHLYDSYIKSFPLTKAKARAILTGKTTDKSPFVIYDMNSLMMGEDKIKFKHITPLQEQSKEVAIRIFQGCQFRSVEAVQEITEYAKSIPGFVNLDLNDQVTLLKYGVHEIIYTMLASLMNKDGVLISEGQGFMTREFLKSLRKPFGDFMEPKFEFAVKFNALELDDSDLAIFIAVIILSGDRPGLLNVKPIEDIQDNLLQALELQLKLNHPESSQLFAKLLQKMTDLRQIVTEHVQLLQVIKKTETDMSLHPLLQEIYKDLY

Cc1ccc(C)c(OCCCC(C)(C)C(=O)O)c1 [gemfibrozil]
primary endpoint for reducing cardiovascular risk (men with dyslipidemia): met their primary endpoint

CC(C)OC(=O)C(C)(C)Oc1ccc(C(=O)c2ccc(Cl)cc2)cc1 [Fenofibrate, reference compound]
PPARδ EC50 (PPARδ): not activated

O=C(O)c1cccnc1 [niacin]
prevention of cardiovascular events [1]: unable to prevent cardiovascular events

CC[C@@H](Oc1cccc(CN(CCCOc2ccc(OC)cc2)c2nc3ccccc3o2)c1)C(=O)O [pemafibrate, Pemafibrate]
LDL-C levels increase vs. placebo ([2]; 0.1 mg BID, 12 weeks): 22.46%
Non-HDL-C levels ([2]; 0.2 mg BID, 12 weeks): significantly reduced
LDL-C levels increase vs. placebo ([2]; 0.2 mg BID, 12 weeks): 24.25%
Non-HDL-C levels ([2]; 0.2 mg QD, 12 weeks): significantly reduced
LDL-C levels increase vs. placebo ([2]; 0.4 mg QD, 12 weeks): 18.74%
TG levels ([2]; all treatment groups after 12 weeks): significantly reduced
change in total Apo B ([2]; any dose, 12 weeks): no significant change
Adverse events, patients ([2]; both, human, in vivo, 12 weeks): 46.4%
increase in HDL-C ([3]; 0.05 mg BID): 11.39%
increase in HDL-C ([3]; 0.1 mg BID): 11.94%
BQ LDL-C increase ([3]; 0.1 mg QD): 6.7%
BQ LDL-C increase ([3]; 0.2 mg BID): 1.8%
increase in HDL-C ([3]; 0.2 mg QD): 9.48%
TG levels ([3]; across all doses): significantly reduced
Apo B48 levels ([3]; all doses): significantly reduced
Apo CIII levels ([3]; all doses): significantly reduced
remnant-C levels ([3]; all doses): significantly reduced
change in total Apo B ([3]; any dose): no significant change
fasting plasma glucose compared to placebo ([4]; 0.4 mg/day, P=0.003): significant reductions
HOMA-IR compared to placebo ([4]; 0.4 mg/day, P=0.019): significant reductions
very small LDL-C compared to placebo ([4]; HPLC analysis, P<0.05): significant reduction
effect on total LDL-C ([4]; add-on to pitavastatin, 12 weeks): neutral effect
Apo CIII compared to placebo ([4]; all pemafibrate groups, P<0.01): reductions
HDL-C compared to placebo ([4]; all pemafibrate groups, P<0.01): Significant increase
VLDL-C compared to placebo ([4]; all pemafibrate groups, P<0.01): reductions
remnant lipoprotein cholesterol compared to placebo ([4]; all pemafibrate groups, P<0.01): reductions
Fasting non-HDL-C reduction ([4]; pemafibrate 0.1 mg, 12 weeks): −11.3%
Fasting TG reduction (percentage change from baseline) ([4]; pemafibrate 0.1 mg/day twice-daily, 12 weeks): −46.1%
Fasting non-HDL-C reduction ([4]; pemafibrate 0.2 mg, 12 weeks): −14.1%
Fasting TG reduction (percentage change from baseline) ([4]; pemafibrate 0.2 mg/day twice-daily, 12 weeks): −53.4%
Fasting non-HDL-C reduction ([4]; pemafibrate 0.4 mg, 12 weeks): −13.3%
Fasting TG reduction (percentage change from baseline) ([4]; pemafibrate 0.4 mg/day twice-daily, 12 weeks): −52.0%
EC50 (PPARγ): 2.3 µM
EC50 (PPARδ): 1 µM
